PubChem BioAssay (NCI)
Several values for one entry are separate records, joined by “and”; a condition that tells them apart may be missing. Equal values may be shown once.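 Interpolation was linear, between the two tested concentrations surrounding the appropriate level; five concentrations were tested over 48 hours in 96-well plates. GI50 = concentration required for 50% inhibition of growth. TGI denotes the concentration required for complete inhibition of growth.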 Where a SMILES comes first, the peptide text is derived from it. [ ]: non-standard residue; d: D form. The star is where a group is joined. ξ: configuration not given here. NMeF = CN[C@@H](Cc1ccccc1)C(=O)O; NMeN = CN[C@@H](CC(N)=O)C(=O)O; NMeV = CN[C@H](C(=O)O)C(C)C; ξNMeV = CNC(C(=O)O)C(C)C; Boc = CC(C)(C)OC(=O)*; ξNMeA = CNC(C)C(=O)O; ξV = CC(C)C(N)C(=O)O

Key:
Experiment in all cases: inhibition of tumour cell growth, NCI panel, 48 h
[1] = tested on: 786-0 renal
[2] = tested on: A498 renal
[3] = tested on: A549 NSCLC
[4] = tested on: ACHN renal
[5] = tested on: BT-549 breast
[6] = tested on: CAKI-1 renal
[7] = tested on: CCRF-CEM leukemia
[8] = tested on: COLO 205 colon
[9] = tested on: DLD-1 colon
[10] = tested on: DMS 114 small cell lung
[11] = tested on: DMS 273 small cell lung
[12] = tested on: DU-145 prostate
[13] = tested on: EKVX NSCLC
[14] = tested on: HCC-2998 colon
[15] = tested on: HCT-116 colon
[16] = tested on: HCT-15 colon
[17] = tested on: HL-60(TB) leukemia
[18] = tested on: HOP-62 NSCLC
[19] = tested on: HOP-92 NSCLC
[20] = tested on: HS 578T breast
[21] = tested on: HT29 colon
[22] = tested on: IGROV1 ovarian
[23] = tested on: K-562 leukemia
[24] = tested on: KM12 colon
[25] = tested on: KM20L2 colon
[26] = tested on: LOX IMVI melanoma
[27] = tested on: LXFL 529 NSCLC
[28] = tested on: M14 melanoma
[29] = tested on: MALME-3M melanoma
[30] = tested on: MCF7 breast
[31] = tested on: MDA-MB-231 breast
[32] = tested on: MDA-MB-435
[33] = tested on: MDA-N
[34] = tested on: MOLT-4 leukemia
[35] = tested on: NCI-H226 lung
[36] = tested on: NCI-H23 lung
[37] = tested on: NCI-H460 lung
[38] = tested on: NCI-H522 lung
[39] = tested on: NCI/ADR-RES ovarian
[40] = tested on: OVCAR-3 ovarian
[41] = tested on: OVCAR-4 ovarian
[42] = tested on: OVCAR-5 ovarian
[43] = tested on: OVCAR-8 ovarian
[44] = tested on: PC-3 prostate
[45] = tested on: RPMI-8226 leukemia
[46] = tested on: RXF 393 renal
[47] = tested on: SF-268 CNS
[48] = tested on: SF-295 CNS
[49] = tested on: SF-539 CNS
[50] = tested on: SK-MEL-2 melanoma
[51] = tested on: SK-MEL-28 melanoma
[52] = tested on: SK-MEL-5 melanoma
[53] = tested on: SK-OV-3 ovarian
[54] = tested on: SN12C renal
[55] = tested on: SNB-19 CNS
[56] = tested on: SNB-75 CNS
[57] = tested on: SNB-78 CNS
[58] = tested on: SR leukemia
[59] = tested on: SW-620 colon
[60] = tested on: T-47D breast
[61] = tested on: TK-10 renal
[62] = tested on: U251 CNS
[63] = tested on: UACC-257 melanoma
[64] = tested on: UACC-62 melanoma
[65] = tested on: UO-31 renal
[66] = tested on: XF 498 CNS
[67] = tested on: M19-MEL melanoma

COC(=O)C(C)N(C)C(=O)[C@H](CC(N)=O)N(C)C(=O)[C@@H]1CCCN1C(=O)[C@H](C(C)C)N(C)C(=O)C(C(C)C)N(C)C(=O)[C@H](Cc1ccccc1)N(C)C(=O)C(NC(=O)OC(C)(C)C)C(C)C (some centres undefined) (Boc-[ξV][NMeF][ξNMeV][NMeV]P[NMeN][ξNMeA]-OMe)
GI50 [1]: 29.7 µM
TGI [1]: 50 µM and > 100 µM
GI50 [2]: 21.9 µM
TGI [2]: 50 µM and 67 µM
GI50 [3]: > 100 µM
TGI [3]: > 100 µM
GI50 [4]: > 100 µM
TGI [4]: > 100 µM
TGI [5]: 32.3 µM
GI50 [6]: 26.9 µM
TGI [6]: > 50 µM and 55.3 µM
GI50 [7]: 10.8 µM
TGI [7]: 50 µM and 33.1 µM
GI50 [8]: 17.5 µM
TGI [8]: 50 µM and 35.6 µM
TGI [9]: 31.8 µM
TGI [10]: 17.1 µM
TGI [11]: 28.9 µM
TGI [12]: 50 µM
GI50 [13]: 23.7 µM
TGI [13]: > 50 µM and 61.5 µM
GI50 [14]: 16.7 µM
TGI [14]: 50 µM and 31.1 µM
TGI [15]: 50 µM and 31.1 µM
GI50 [16]: 29.8 µM
TGI [16]: 50 µM and > 100 µM
GI50 [17]: 4.54 µM
TGI [17]: 44.7 µM and 17.4 µM
GI50 [18]: 19.1 µM
TGI [18]: 31.5 µM and 38.8 µM
GI50 [19]: 14.6 µM
TGI [19]: 50 µM and 27.8 µM
TGI [20]: 23.6 µM
GI50 [21]: 23.4 µM
TGI [21]: 50 µM and 57.7 µM
GI50 [22]: 16.2 µM
TGI [22]: 50 µM and 29.8 µM
GI50 [23]: 21 µM
TGI [23]: 50 µM and 57.2 µM
GI50 [24]: 18.8 µM
TGI [24]: 22.8 µM and 37.3 µM
TGI [25]: > 100 µM
GI50 [26]: 3.1 µM
TGI [26]: 20.7 µM and 19.2 µM
TGI [27]: 10.3 µM
TGI [28]: 50 µM and 30.6 µM
TGI [29]: 32.5 µM
TGI [30]: 50 µM
TGI [31]: 50 µM
TGI [32]: 50 µM
TGI [33]: 50 µM
GI50 [34]: 11.1 µM
TGI [34]: 21.5 µM and 33.6 µM
GI50 [35]: 20.8 µM
TGI [35]: 40.2 µM and 36.6 µM
GI50 [36]: 20.4 µM
TGI [36]: 50 µM and 40.4 µM
GI50 [37]: 17.4 µM
TGI [37]: 50 µM and 39 µM
TGI [38]: 50 µM and 29.8 µM
TGI [39]: > 50 µM
GI50 [40]: 17.1 µM
TGI [40]: 50 µM and 31.2 µM
GI50 [41]: 31.1 µM
TGI [41]: > 50 µM and 87.5 µM
GI50 [42]: 97.2 µM
TGI [42]: > 100 µM
TGI [43]: 31.3 µM
TGI [44]: 50 µM
TGI [45]: 41.9 µM
TGI [46]: 29.8 µM
GI50 [47]: 15.6 µM
TGI [47]: 50 µM and 29 µM
GI50 [48]: 32.8 µM
TGI [48]: 26.3 µM and > 100 µM
GI50 [49]: 18.1 µM
TGI [49]: 50 µM and 32.4 µM
TGI [50]: 20.1 µM and 22.9 µM
TGI [51]: 50 µM and 30.5 µM
GI50 [52]: 15.2 µM
TGI [52]: 50 µM and 28.5 µM
GI50 [53]: 29.4 µM
TGI [53]: 50 µM and > 100 µM
GI50 [54]: 17.4 µM
TGI [54]: 50 µM and 33.5 µM
GI50 [55]: 16.9 µM
TGI [55]: 50 µM and 30.8 µM
GI50 [56]: 17.2 µM
TGI [56]: 21.1 µM and 31.9 µM
TGI [57]: 40.4 µM
GI50 [58]: 0.005 µM
TGI [58]: 50 µM and 21.6 µM
GI50 [59]: 13 µM
TGI [59]: 50 µM and 25.7 µM
TGI [60]: 50 µM
GI50 [61]: 18.4 µM
TGI [61]: 50 µM and 51.8 µM
GI50 [62]: 16.9 µM
TGI [62]: 23 µM and 30.5 µM
GI50 [63]: 19.4 µM
TGI [63]: 50 µM and 39.4 µM
GI50 [64]: 17.5 µM
TGI [64]: 20.3 µM and 36.8 µM
GI50 [65]: 17.3 µM
TGI [65]: 50 µM and 31.1 µM
TGI [66]: 28.9 µM

CC12C=C[C@]3(CC[C@@H]4[C@@](C)(CO)CCC[C@]4(C)C3CC1)C2 (some centres undefined)
TGI [1]: 30 µM
TGI [2]: 37.7 µM
TGI [3]: 36.7 µM
TGI [4]: 32 µM
TGI [6]: 26.2 µM
TGI [7]: 46.9 µM
TGI [8]: 30.6 µM
TGI [10]: 31.7 µM
TGI [11]: 29.6 µM
TGI [13]: > 55.8 µM
TGI [15]: 31.9 µM
TGI [16]: 31.1 µM
TGI [17]: 36.8 µM
TGI [18]: 19.9 µM
TGI [19]: > 65 µM
TGI [21]: 32.2 µM
TGI [22]: 33 µM
TGI [23]: 37.5 µM
TGI [24]: > 64 µM
TGI [25]: 1.68 µM
TGI [26]: 30.7 µM
TGI [27]: 30.8 µM
TGI [28]: 29.9 µM
TGI [67]: 35.7 µM
TGI [29]: 47.6 µM
TGI [34]: > 60.4 µM
TGI [35]: 14.4 µM
TGI [36]: 33.4 µM
TGI [37]: 40.1 µM
TGI [38]: 16.6 µM
TGI [40]: 33.2 µM
TGI [41]: 26.7 µM
TGI [42]: 10.6 µM
TGI [43]: 41.2 µM
TGI [45]: 41.6 µM
TGI [46]: 27.3 µM
TGI [47]: 35.4 µM
TGI [48]: 34.1 µM
TGI [49]: 30.5 µM
TGI [50]: 43.2 µM
TGI [51]: 35.6 µM
TGI [53]: 33.2 µM
TGI [54]: 34.4 µM
TGI [55]: 36.2 µM
TGI [57]: 36.7 µM
TGI [58]: 37 µM
TGI [59]: 33.8 µM
TGI [61]: 34.7 µM
TGI [62]: 30.9 µM
TGI [63]: 33.6 µM
TGI [64]: 29.3 µM
TGI [65]: 32.2 µM
TGI [66]: 35.3 µM
